Experimental data as given in patent US11045464B2, “Parenteral formulations of dopamine agonists” (VeroScience LLC, priority 2007, dated 2021).

Assay: Stability of SKF-38393 in solution
Assay type: physicochemical
Description: Formulation 22S was a combination of […], employing the 11S base formulation with the two active agents. […] A short study has been run to ensure the stability of SKF-38393. […] In contrast, in alcohol solution, the API decomposes rapidly, with >5% of the API already lost within the first hour.

## Oc1cc2c(cc1O)C(c1ccccc1)CNCC2 (centres unmarked) [SKF-38393]
In alcohol solution, within the first hour
  API lost (decomposition): > 5%
In water buffered by the acidic acid, within 12 h
  decomposition of SKF-38393: no decomposition
